The text below walks through data of ChEMBL document CHEMBL3769365, “Discovery of the First Potent and Selective Inhibitors of Human dCTP Pyrophosphatase 1” (J Med Chem, 2016).

The target in series [1] is T1, dCTP pyrophosphatase 1 (Homo sapiens, UniProt Q9H773).
T1 sequence (Q9H773 whole entry): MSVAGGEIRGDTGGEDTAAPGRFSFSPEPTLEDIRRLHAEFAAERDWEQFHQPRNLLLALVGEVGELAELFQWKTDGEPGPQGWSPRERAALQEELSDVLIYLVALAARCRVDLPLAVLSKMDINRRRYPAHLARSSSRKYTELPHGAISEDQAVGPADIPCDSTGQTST
Description: Inhibition of human recombinant full length dCTPase expressed in Escherichia coli BL21(DE3)pLysS using dCTP as substrate after 1 hr by HTS-adapted Malachite Green assay.

Series [2] can be described thus: Half life in mouse liver microsomes. The class given is ADME.
Series [3] relates to Liver microsome. Description: Half life in human liver microsomes. The class given is ADME. A general note: Liver microsomes are vesicles of endoplasmic reticulum, rich in cytochrome P450 enzymes.
Series [4] in a line: Aqueous solubility of the compound. The following applies: buffer. The class given is physicochemical.
Series [5] can be described thus: Fraction unbound in plasma (unknown origin). The class given is ADME, cell-free.
Series [6] in a line: Metabolic stability of plasma (unknown origin) assessed as compound remaining after 4 hrs. It counts as ADME, cell-free. The following applies: read-out: Stability.
Series [7] has as its target T2, Cytochrome P450 1A2 (Homo sapiens, UniProt P05177).
T2 sequence (P05177 whole entry): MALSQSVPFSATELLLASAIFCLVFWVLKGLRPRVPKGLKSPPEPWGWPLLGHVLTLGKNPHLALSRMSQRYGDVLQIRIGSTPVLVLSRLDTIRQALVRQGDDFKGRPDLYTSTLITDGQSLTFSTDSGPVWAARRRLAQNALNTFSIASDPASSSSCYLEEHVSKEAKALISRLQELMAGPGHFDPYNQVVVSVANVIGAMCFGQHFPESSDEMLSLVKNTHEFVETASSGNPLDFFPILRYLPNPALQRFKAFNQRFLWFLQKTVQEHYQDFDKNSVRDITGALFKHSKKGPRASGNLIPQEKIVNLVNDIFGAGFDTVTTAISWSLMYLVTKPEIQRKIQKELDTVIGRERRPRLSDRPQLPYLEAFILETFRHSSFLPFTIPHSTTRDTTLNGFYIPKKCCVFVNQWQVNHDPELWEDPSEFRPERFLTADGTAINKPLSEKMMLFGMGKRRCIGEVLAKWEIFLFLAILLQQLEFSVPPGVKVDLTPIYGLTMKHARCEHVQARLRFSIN
Description: Inhibition of CYP1A2 (unknown origin) using phenacetin as substrate preincubated for 10 mins followed by NADPH addition by LC/MS/MS analysis. It counts as ADME.

Series [8] has as its target T3, Cytochrome P450 3A4 (Homo sapiens, UniProt P08684). Description: Inhibition of CYP3A4 (unknown origin) using testostrone as substrate preincubated for 10 mins followed by NADPH addition by LC/MS/MS analysis. The class given is ADME.
Series [9] addresses Cytochrome P450 2C9 (Homo sapiens, UniProt P11712). Description: Inhibition of CYP2C9 (unknown origin) using diclofenac as substrate preincubated for 10 mins followed by NADPH addition by LC/MS/MS analysis. It counts as ADME.
The target of series [10] is T3, Cytochrome P450 3A4. Description: Inhibition of CYP3A4 (unknown origin) using midazolam as substrate preincubated for 10 mins followed by NADPH addition by LC/MS/MS analysis. It counts as ADME.
Series [11] deals with Cytochrome P450 2C19 (Homo sapiens, UniProt P33261). Description: Inhibition of CYP2C19 (unknown origin) using mephenytoin as substrate preincubated for 10 mins followed by NADPH addition by LC/MS/MS analysis. It counts as ADME.
Chain of Cytochrome P450 2C19 (P33261 whole entry): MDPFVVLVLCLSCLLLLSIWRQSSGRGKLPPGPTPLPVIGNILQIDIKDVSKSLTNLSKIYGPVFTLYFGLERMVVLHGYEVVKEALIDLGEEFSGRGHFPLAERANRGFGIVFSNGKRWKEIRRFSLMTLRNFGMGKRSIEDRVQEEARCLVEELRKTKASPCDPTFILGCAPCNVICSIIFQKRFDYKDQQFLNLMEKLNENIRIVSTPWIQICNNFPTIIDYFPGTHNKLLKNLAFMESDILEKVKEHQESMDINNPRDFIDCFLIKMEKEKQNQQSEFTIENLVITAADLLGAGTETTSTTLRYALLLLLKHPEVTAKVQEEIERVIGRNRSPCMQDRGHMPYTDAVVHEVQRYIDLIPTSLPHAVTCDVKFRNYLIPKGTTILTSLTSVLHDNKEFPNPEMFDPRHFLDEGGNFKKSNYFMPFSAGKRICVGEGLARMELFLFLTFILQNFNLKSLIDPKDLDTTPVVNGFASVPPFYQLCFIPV
A short description of series [12]: Efflux ratio of apparent permeability of the compound. The class given is ADME.
The nature of series [13]: Apparent permeability of the compound from apical to basolateral side. The class given is physicochemical.
In series [14] the target is Cytochrome P450 2D6 (Homo sapiens, UniProt P10635). Description: Inhibition of CYP2D6 (unknown origin) using bufuralol as substrate preincubated for 10 mins followed by NADPH addition by LC/MS/MS analysis. The class given is ADME.
Chain of Cytochrome P450 2D6 (P10635 whole entry): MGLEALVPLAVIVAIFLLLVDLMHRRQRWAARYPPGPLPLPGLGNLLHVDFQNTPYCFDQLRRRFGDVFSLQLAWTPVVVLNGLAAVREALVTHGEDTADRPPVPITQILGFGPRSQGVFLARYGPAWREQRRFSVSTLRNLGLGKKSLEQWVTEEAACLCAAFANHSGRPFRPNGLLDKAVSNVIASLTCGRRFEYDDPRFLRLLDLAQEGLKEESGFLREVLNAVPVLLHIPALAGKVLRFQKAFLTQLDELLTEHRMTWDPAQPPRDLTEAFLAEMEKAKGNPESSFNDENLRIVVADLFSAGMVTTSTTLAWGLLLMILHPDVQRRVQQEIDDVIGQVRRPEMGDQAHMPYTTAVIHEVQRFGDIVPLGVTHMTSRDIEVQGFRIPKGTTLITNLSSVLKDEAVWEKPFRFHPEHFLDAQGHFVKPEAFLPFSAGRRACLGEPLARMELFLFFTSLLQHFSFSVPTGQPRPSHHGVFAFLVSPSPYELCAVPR
Series [15] can be described thus: Mutagenicity in human HL60 cells assessed as caspase 3 cleavage by Western blot analysis. The class given is toxicity, cell-based. The conditions noted are these: hl-60. For orientation: Immunoblotting shows a protein as a band on a membrane.
Series [16] can be described thus: Photostability of compound at room temperature after 5 months by LC/MS analysis. It counts as physicochemical. The conditions noted are these: 3652.5 h.
The nature of series [17]: Mutagenicity in human HL60 cells assessed as Chk1 phosphorylation at S345 by Western blot analysis. It counts as toxicity, cell-based. The following applies: hl-60.
The nature of series [18]: Mutagenicity in human HL60 cells assessed as 53BP1 foci formation at 2.5 uM after 24 hrs by immunofluorescence staining-based Zeiss LSM-780 confocal microscopy. The class given is toxicity, cell-based. The following applies: hl-60, 24 h.
A short description of series [19]: Mutagenicity in human HL60 cells assessed as gammaH2AX foci formation at 2.5 uM after 24 hrs by immunofluorescence staining-based Zeiss LSM-780 confocal microscopy. The conditions noted are these: hl-60, 24 h. It counts as toxicity, cell-based.

pIC50: −log10 of the molar value. In brackets after ≈: the same amount, converted by molar mass. Bounds are passed on as bounds.

T3 sequence (P08684 whole entry): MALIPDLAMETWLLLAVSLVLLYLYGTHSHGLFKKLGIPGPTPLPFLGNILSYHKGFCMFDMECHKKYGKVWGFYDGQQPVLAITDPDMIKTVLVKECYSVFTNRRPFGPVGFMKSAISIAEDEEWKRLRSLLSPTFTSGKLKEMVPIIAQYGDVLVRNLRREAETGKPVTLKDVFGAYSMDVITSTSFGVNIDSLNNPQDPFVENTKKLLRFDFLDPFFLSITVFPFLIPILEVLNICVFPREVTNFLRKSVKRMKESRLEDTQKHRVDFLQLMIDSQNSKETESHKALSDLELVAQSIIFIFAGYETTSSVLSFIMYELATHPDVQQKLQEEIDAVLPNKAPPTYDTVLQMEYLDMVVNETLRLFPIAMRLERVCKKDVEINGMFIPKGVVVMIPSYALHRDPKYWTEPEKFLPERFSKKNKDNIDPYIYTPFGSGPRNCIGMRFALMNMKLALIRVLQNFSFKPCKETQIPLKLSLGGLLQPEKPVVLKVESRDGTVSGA
Chain of Cytochrome P450 2C9 (P11712 whole entry): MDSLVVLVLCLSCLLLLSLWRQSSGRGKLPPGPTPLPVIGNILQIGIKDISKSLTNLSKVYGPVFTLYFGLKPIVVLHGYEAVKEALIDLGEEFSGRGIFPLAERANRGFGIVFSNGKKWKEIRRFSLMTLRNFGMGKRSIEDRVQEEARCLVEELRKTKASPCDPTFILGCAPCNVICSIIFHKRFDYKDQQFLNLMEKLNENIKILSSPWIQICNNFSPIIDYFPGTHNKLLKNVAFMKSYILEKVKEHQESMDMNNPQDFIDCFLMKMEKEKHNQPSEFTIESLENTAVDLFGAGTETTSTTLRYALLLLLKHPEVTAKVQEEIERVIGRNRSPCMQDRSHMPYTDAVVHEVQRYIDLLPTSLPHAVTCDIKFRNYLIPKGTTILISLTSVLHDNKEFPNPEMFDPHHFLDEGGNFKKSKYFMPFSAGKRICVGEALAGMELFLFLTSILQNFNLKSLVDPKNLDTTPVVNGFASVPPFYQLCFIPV

As a reminder, the pIC50 is the negative decadic logarithm of the IC50, by convention in mol/L. As to `Cc1nc2cc(Cl)c(Cl)cc2n1Cc1ccc(B(O)O)cc1`, the negative logarithm of the IC50 (pIC50) in series [1] was 6.61.

On to `COc1ccc(Cn2c(C)nc3c([N+](=O)[O-])cccc32)cc1`, for which the pIC50 in series [1] was 5.84.

On to `COC(=O)c1ccc(Cn2c(C)nc3c([N+](=O)[O-])c(Cl)c(Cl)cc32)cc1`, for which the pIC50 in series [1] was 7.02.

As for `CC(=O)Oc1ccc(Cn2c(C)nc3c([N+](=O)[O-])c(Cl)c(Cl)cc32)cc1`, the pIC50 in [1] was 7.47.

As for `COc1ccc(Cn2c(C)nc3cc(Cl)c(Cl)cc32)cc1`, the negative logarithm of the IC50 (pIC50) in series [1] was 4.92.

Regarding `Cc1nc2c([N+](=O)[O-])c(Cl)c(Cl)cc2n1Cc1cccc(B(O)O)c1`, the pIC50 in series [1] is 7.34.

As to `Cc1ccc(Cn2c(C)nc3c([N+](=O)[O-])c(Cl)c(Cl)cc32)cc1`, in series [1], the pIC50 was 7.72.

Regarding `Cc1nc2c([N+](=O)[O-])c(Cl)c(Cl)cc2n1Cc1ccc(C=O)cc1`, the negative logarithm of the IC50 (pIC50) in series [1] was 6.88.

As for `Cc1nc2c([N+](=O)[O-])c(F)c(F)cc2n1Cc1ccc(B(O)O)cc1`, the pIC50 in series [1] was 6.28.

Consider `Cc1nc2c([N+](=O)[O-])c(Cl)c(Cl)cc2n1Cc1ccc(C#N)cc1`, for which the negative logarithm of the IC50 (pIC50) in series [1] was 6.78.

Regarding `COc1ccc(Cn2cnc3cc(C)c(C)cc32)cc1`, in series [1], the negative-log IC50 (pIC50) is less than 4.00.

Regarding `Cc1nc2c([N+](=O)[O-])c(Cl)c(Cl)cc2n1Cc1ccccc1`, the negative-log IC50 (pIC50) in series [1] was 7.31.

Take `Cc1nc2c([N+](=O)[O-])c(Cl)c(Cl)cc2n1Cc1ccc(-n2cccn2)cc1`: the t1/2 in series [2] was 22 min; in series [3], 38 min. Also, the pIC50 in series [1] was 7.12.

Turning to `Cc1nc2c([N+](=O)[O-])c(Cl)c(Cl)cc2n1Cc1ccc(Cl)nc1`, the pIC50 in series [1] is 6.73.

For the compound `COc1ccc(Cn2c(C)nc3ccccc32)cc1`, the pIC50 in series [1] was less than 4.00.

For the compound `Cc1nc2c([N+](=O)[O-])c(Cl)c(Cl)cc2n1Cc1ccc(-n2cccc2)cc1`, the pIC50 in series [1] is 6.48.

With `COc1ccc(Cn2c(C)nc3c([N+](=O)[O-])c(Cl)c(Cl)cc32)cc1`, the values for the t1/2 in [2] and in series [3] were 8 min and 30 min, respectively.

Consider `Cc1nc2c([N+](=O)[O-])c(Cl)c(Cl)cc2n1-c1ccccc1`, for which the pIC50 in series [1] was 7.07.

For `O=[N+]([O-])c1c(Cl)c(Cl)cc2c1nc(C1CC1)n2Cc1ccc(B(O)O)cc1`, the values for the t1/2 in series [2] and in series [3] were 13 min and 268 min, respectively.

For the compound `COc1ccc(Cn2cnc3ccccc32)cc1`, the negative logarithm of the IC50 (pIC50) in series [1] was less than 4.00.

`Cc1nc2c([N+](=O)[O-])c(Cl)c(Cl)cc2n1CCc1ccc(B(O)O)cc1`: the pIC50 in series [1] is 6.69.

What is called solubility is the dissolved amount per volume that the medium holds. Read a high solubility as much dissolved substance. With `Cc1nc2c([N+](=O)[O-])c(Cl)c(Cl)cc2n1Cc1ccc(O)cc1`, the solubility in [4] worked out at 11 µM (≈ 3.87 µg/mL). Also, in series [1], the negative-log IC50 (pIC50) was 7.68. This compound also registered a Fu in series [5] of 0.7%. For the same compound, in [6], the remaining at 4 h was determined as 96%.

Turning to `Cc1cc2c(nc(C)n2C(C)c2ccccc2)c([N+](=O)[O-])c1C` (centres undefined), the pIC50 in [1] is 6.60.

Turning to `Cc1nc(Cn2c(C)nc3c([N+](=O)[O-])c(Cl)c(Cl)cc32)cs1`, the pIC50 in series [1] is 6.62.

For `COc1ccc(Cn2c(C)nc3cc(C)c(C)cc32)cc1`, the pIC50 in [1] was 4.66.

`Cc1n[nH]c(C)c1CCn1c(C)nc2c([N+](=O)[O-])c(Cl)c(Cl)cc21`: the t1/2 was 7 min in series [2] and 6 min in [3]. Further, the pIC50 in series [1] is 6.72.

A word on the Papp: it is the rate of passage across a membrane or cell layer, normalised by area and donor concentration. On to `Cc1nc2c([N+](=O)[O-])c(Cl)c(Cl)cc2n1Cc1ccc(B2OC(=O)CN(C)CC(=O)O2)cc1`, for which the t1/2 in series [2] is given as 109 min; in series [3], 11 min. Also, the pIC50 in series [7] was 3.42; in series [8], 4.66; in [1] it was 7.33; in [9] it was 5.76; in [10] it was 4.55; in series [11], 5.53. For the same compound, in [14], the pIC50 is 4.78. In series [4], this compound came in with a solubility of more than 100 µM. In addition, the Fu in series [5] came to 0.8%. Besides, the remaining at 4 h in series [6] was determined as 86%. Besides, in series [12], the Ratio is 1.51. Also, in series [13], the apparent permeability coefficient (Papp) turned out to be 8.66 ×10⁻⁶ cm/s.

Regarding `Cc1nc2c([N+](=O)[O-])c(Cl)c(Cl)cc2n1Cc1ccc(B(O)O)cc1`, the Activity entry in series [15], in series [17], in series [18] and in series [19] was “Non-toxic” each time. Moreover, the t1/2 was found to be 197 min in series [2] and 72 min in series [3]. Moreover, the solubility in series [4] is 52 µM (≈ 19.8 µg/mL). The pIC50 in series [1] was 7.34. Also, in [5], the Fu came to 0.1%. Moreover, the remaining at 4 h in [6] is 11%. The Stability result in [16] is reported as “Stable”.

Turning to `Cc1nc2c([N+](=O)[O-])c(Cl)c(Cl)cc2n1C(=O)c1ccccc1`, the negative-log IC50 (pIC50) in [1] was 7.02.

Take `Cc1nc2c([N+](=O)[O-])c(Cl)c(Cl)cc2n1Cc1ccccc1B(O)O`: in [1], the pIC50 is 7.09.

For `Cc1nc2c([N+](=O)[O-])c(Cl)c(Cl)cc2n1Cc1ccc(C(=O)O)cc1`, in [1], the pIC50 was 7.14.

For the compound `COc1ccc(Cn2c(C)nc3c([N+](=O)[O-])c(C)c(C)cc32)cc1`, in series [1], the negative-log IC50 (pIC50) is 7.24.
